Measurements reported in US20050192261A1, “Methods and reagents for the treatment of immunoinflammatory disorders” (priority 2003, published 2005).
Read-outs that look alike come from different tables or passages of the source.

Tested on: TNFα secretion in white blood cells from human buffy coat stimulated with phorbol 12-myristate 13-acetate and ionomycin
Experiment: TNFα secretion assay
Settings: Homo sapiens; for inhibition at 0.5 µM: read-out: % inhibition of TNFα secretion, Rolipram 0.5 μM; for inhibition at 1 µM: read-out: % inhibition of TNFα secretion, Rolipram 1 μM
[1] = Bromodiphenhydramine HCl μM r5-r13: 0,0.21,0.43,0.85,1.7,3.4,6.8,14,27
[2] = Cyproheptadine HCl μM r5-r13: 0,0.24,0.48,0.96,1.9,3.9,7.7,15,31
[3] = Loratadine μM r5-r13: 0,0.2,0.41,0.82,1.6,3.3,6.5,13,26
[4] = Thiethylperazine Maleate μM r5-r13: 0,0.2,0.39,0.78,1.6,3.1,6.3,13,25

Protocol: Drugs were added to the indicated concentration. […] The plate was then washed again with 0.1% Tween 20/PBS. An HRP-luminescent substrate was added to each well, and the light intensity of each well was measured using a plate luminometer.

## COc1ccc(C2CNC(=O)C2)cc1OC1CCCC1 (centres unmarked) [Rolipram]
[1]
  inhibition at 0.5 µM: 37%
  inhibition at 1 µM: 44%
[2]
  inhibition at 0.5 µM: 44%
  inhibition at 1 µM: 38%
[3]
  inhibition at 0.5 µM: 43%
  inhibition at 1 µM: 50%
[4]
  inhibition at 0.5 µM: 38%
  inhibition at 1 µM: 39%
